Laboratory results reported in US20230165980A1, “METHODS FOR RADIOLABELING PSMA BINDING LIGANDS AND THEIR KITS” (Novartis AG, priority 2020, published 2023).

Assay: API assay stability of the freeze dried kit (external calibration curve)
Type: physicochemical
Details: final formulation kit
Method: Stability tests were performed on the freeze dried product containing the final formulation. […] Kits manufactured with the final formulation, indeed, were stored at different stability conditions (2-8° C.; 25° C. and 40° C.) and were tested at different time points for API-assay, Radiochemical Purity and Radiochemical Stability of the radiolabelled product. Radiochemical Purity and Stability were assessed only eluting IRE Generator which represented the most stressful condition in terms of Radioactive Concentration (Volumic Activity).

API quantitation, 1. injection (3 months at 2-8° C.): 28.87 µg
API quantitation, 2. injection (3 months at 2-8° C.): 29.21 µg
API quantitation, 3. injection (3 months at 2-8° C.): 28.44 µg
API quantitation, Average (3 months at 2-8° C.): 28.84 µg
API quantitation, 1. injection (3 months at 25° C.): 28.19 µg
API quantitation, 2. injection (3 months at 25° C.): 29.57 µg
API quantitation, 3. injection (3 months at 25° C.): 28.33 µg
API quantitation, Average (3 months at 25° C.): 28.70 µg
API quantitation, 1. injection (3 months at 40° C.): 28.17 µg
API quantitation, 2. injection (3 months at 40° C.): 28.05 µg
API quantitation, 3. injection (3 months at 40° C.): 28.06 µg
API quantitation, Average (3 months at 40° C.): 28.10 µg
API quantitation, 1. injection (6 months at 2-8° C.): 29.79 µg
API quantitation, 2. injection (6 months at 2-8° C.): 29.61 µg
API quantitation, 3. injection (6 months at 2-8° C.): 29.43 µg
API quantitation, Average (6 months at 2-8° C.): 29.61 µg
API quantitation, 1. injection (6 months at 25° C.): 29.35 µg
API quantitation, 2. injection (6 months at 25° C.): 29.31 µg
API quantitation, 3. injection (6 months at 25° C.): 29.06 µg
API quantitation, Average (6 months at 25° C.): 29.24 µg
API quantitation, 1. injection (6 months at 40° C.): 28.81 µg
API quantitation, 2. injection (6 months at 40° C.): 28.87 µg
API quantitation, 3. injection (6 months at 40° C.): 28.98 µg
API quantitation, Average (6 months at 40° C.): 28.89 µg
API quantitation, 1. injection (Release (Manufacturing date)): 28.31 µg
API quantitation, 2. injection (Release (Manufacturing date)): 28.76 µg
API quantitation, 3. injection (Release (Manufacturing date)): 27.40 µg
API quantitation, Average (Release (Manufacturing date)): 28.15 µg
Structure (SMILES): O=C(O)CCc1ccc(O)c(CN(CCN(CC(=O)O)Cc2cc(CCC(=O)NCCCCCC(=O)NCCCC[C@H](NC(=O)N[C@@H](CCC(=O)O)C(=O)O)C(=O)O)ccc2O)CC(=O)O)c1 [PSMA-11]
